Laboratory results from patent publication US10716850B2, “Anti-inflammatory factor retentate, method of isolation, and use” (Wellin, Inc., priority 2014, dated 2020).

What was measured:
[1] = test system: neutrophil migration into the pleural cavity; assay: pleural neutrophil migration inhibition assay; format: in vivo, rat; settings: for dose range of activity in the neutrophil assay: compared together with Peak 12
Procedure: Neutrophil Migration Inhibition Assay. MAIF anti-inflammatory activity was determined in a pleural neutrophil migration inhibition assay. Female, white laboratory rats weighing 120 to 150 g were injected intrapleurally with 1.0 ml of 1% kappa carrageenin in PBS to induce neutrophil migration into the pleural cavity. Immediately, the rats were injected intraperitoneally with 0.5 ml doses of […] samples in PBS. PBS was used as a control. After four hours, the rats were sacrificed, pleural exudates were collected, and the emigrated neutrophils were counted.

[2] = test system: carrageenan-induced footpad edema; assay: quantitative rat carrageenan footpad assay with 125I-HSA; format: in vivo; settings: given 30 minutes prior to carrageenan; aspirin orally 200 mg per kilogram, MAIF intraperitoneally, all dosages
Procedure: Peak I from the G-10 column, supplied by Stolle Milk Biologics International, was prepared according to the methods described in U.S. Pat. No. 4,956,349. Lactose, obtained from commercial sources, was used as placebo. Aspirin was used as a positive control. Aspirin was dissolved in water and given orally by gastric gavage at the ratio of 200 mg per kilogram, a dose known to be active in the assay. […] The footpad assay was modified by using isotopically labeled human serum albumin (^125I-HSA) that localizes in the carrageenan-induced lesion in direct proportion to the volume of the exudate. By determining the total radioactive count in the footpad and comparing this to the counts in a known volume of plasma from the injected animal, a direct measurement of edema in microliters of plasma equivalents is obtained. ^125I-HSA was injected intravenously at a dose of 1.0 microcurie per rat. Female Dark Agouti rats were used. […]
To conduct the carrageenan footpad assay, 0.1 ml of 2% carrageenan was injected subcutaneously into each hind foot pad of an anesthetized rat. […] Both hind feet were then removed and the levels of radioactivity in each foot and in the 200 μl plasma standard were measured in an automated gamma counter. From these measurements the volume of edema in each foot was calculated and expressed in microliters.

[3] = test system: circulating neutrophils and lymphocytes; assay: effect on circulating leucocytes; format: in vivo, rat; settings: other anti-inflammatory/immunomodulatory agents
Procedure: Two experiments were done. In the first, the MAIF preparation was administered intravenously at a dose of 40 mg/rat to one group of 6 animals and a control group was injected with saline. Blood samples were obtained at baseline, 1, 4, and 24 hours after treatment.
A further dose-response study was carried out in which a group of rats were injected intravenously with saline, 5, 10 or 20 mg of the MAIF preparation. Blood from each rat had been taken 7 days previously to provide baseline values and was taken again 4 hours after the injection of MAIF. Included on the graph are the results obtained from the sample taken 4 hours after the administration of 40 mg the MAIF preparation (see FIG. 31).

Compound: O=C(O)c1cc(=O)[nH]c(=O)[nH]1 [orotic acid]
- inhibitory activity on the migration of rat neutrophils ([1]; in the doses tested): Neither the sialic acid nor the orotic acid exhibited any inhibitory activity

Compound: CC(=O)Oc1ccccc1C(=O)O [aspirin]
- dose range of activity in the neutrophil assay [1]: active in the high microgram to milligram range
- footpad edema [2]: inhibited

Compound: COc1ccc2c(c1)c(CC(=O)O)c(C)n2C(=O)c1ccc(Cl)cc1 [indomethacin]
- dose range of activity in the neutrophil assay [1]: active in the high microgram to milligram range

Compound: cyclosporin A
- effect on circulating leucocytes in the rat [3]: causes an increase in the number of circulating neutrophils but lymphocyte numbers are either increased or not affected depending on the dose

Compound: O=P1(N(CCCl)CCCl)NCCCO1 (stereo not drawn) [cyclophosphamide]
- effect on circulating leucocytes in the rat [3]: depletes both circulating lymphocytes and neutrophils
